Here are results for five molecules from publication PMC10223284, “Category-Based Toxicokinetic Evaluations of Data-Poor Per- and Polyfluoroalkyl Substances (PFAS) using Gas Chromatography Coupled with Mass Spectrometry” (Toxics, 2023).

Series [1] has as its system human plasma. In words: Chemical stability in plasma over the UC assay time course (T5hr/T1hr). The note with it: for PPB_Stab_Fail: flag for stability failure in the plasma protein binding assay (1 = fail, 0 = pass); for Fstable.Med: median fraction stable in plasma, UC assay Level4; for Time 1 hr / Time 1 hr, Run-specific Avg: amount measured in plasma sample at 1 hr; for Time 1 hr / Time 5 hr: replicates A, B, C; for Time 1 hr / Time 1 hr, Run-specific Avg / Time 5 hr / Time 5 hr, Run-specific Avg: unit not given; for Time 1 hr, Run-specific Avg / Time 5 hr, Run-specific Avg: run average; for Time 5 hr / Time 5 hr, Run-specific Avg: amount measured in plasma sample at 5 hr; for % remaining_PPB: chemical remaining in plasma over the PPB assay time course, NS = no significant loss.

Series [2] is described as follows: Abiotic loss in negative controls of the hepatocyte clearance assay (cell-free media, metabolically inactivated hepatocytes). The note with it: flag for stability failure in hepatocyte clearance assay controls (1 or Fst = fail, 0 = pass). It counts as in vitro ADME. As for the experimental part: The hepatic metabolic stability assay measures the loss of a parent compound over time in a substrate-depletion approach. Briefly, hepatocyte suspensions, after a viability assessment, were diluted in complete William’s medium E (containing dexamethasone and cell maintenance cocktail B) prior to addition to 96-well polypropylene plates containing an equal volume of media spiked with the test compound (1 μM assay concentration; assay cell density = 50,000 cells/100 μL) and maintained at 37 °C with shaking. At each time point, relevant plates were crashed with an equal volume of ice-cold acetonitrile, centrifuged, and supernatant transferred to a new plate prior to storage at <−70 °C until quantitative analysis. Controls, run in parallel, included cell-free (i.e., media only) and metabolically inactivated hepatocytes to evaluate abiotic chemical stability in the aqueous media matrix with and without cellular protein. In preliminary runs, these controls were run at T0 and T240 only. If significant instability was noted, the hepatocyte clearance assay was rerun, including cell-free samples at each time point and metabolically inactivated hepatocytes at selected time points.
Negative controls, including media only and metabolically inactivated hepatocyte controls, were included to monitor abiotic loss (i.e., background clearance) during the assay. Where significant compound loss occurred using the analysis described above, background clearance rates were calculated and used to background-adjust hepatic metabolic clearance rates. Where chemicals were cleared prior to the end of the analysis, at 240 min (T240), the corresponding negative control timepoint was used for background subtraction. Any chemicals displaying a 50% or more abiotic loss at T120 were deemed unstable and were excluded from further analyses.

The subject of series [3] is human plasma. In words: Ultracentrifugation (UC) plasma protein binding assay, fraction unbound in plasma (fup). Conditions: for Fup.Med: median fraction unbound in plasma; for Fup.Med / Fup.point: UC assay Level4; for Fup.point: point estimate of fraction unbound in plasma; for Aqueous Fraction / Aqueous Fraction, Run-specific Avg: amount measured in aqueous fraction after ultracentrifugation, unit not given; for Aqueous Fraction: replicates A, B, C; for Aqueous Fraction, Run-specific Avg: run average.

Series [4] can be described thus: in vitro. The note with it: both, human, plasma.
[5] abbreviates: Mean fu, fraction unbound in human plasma, ultracentrifugation, some values based on eLOQ.
Where [6] appears, read: mean T5hr/T1hr ratio in plasma over all replicates/runs.
Where [7] appears, read: Fraction Unbound (fu), Run-specific Avg, average of one UC run.
Setting [8] is: Fraction Unbound (fu), individual replicates A, B, C of the UC run named in c8.
Setting [9] is: Mean Fu, mean fraction unbound in human plasma over all UC replicates/runs.

“And” between values parts separate entries of the source, which are not always exact repeats. Identical values can stand only once.

Usually fraction unbound stands for the share of the substance not bound to proteins or other matrix. High values mean weak binding, low ones extensive binding. As to `OCCCC(F)(F)C(F)(F)C(F)(F)C(F)(F)C(F)(F)C(F)(F)C(F)(F)C(F)(F)F` [3-(Perfluorooctyl)propanol], in series [1] (average of one UC run (run date in line above)), the “Stability (T5hr/ T1hr), Run-specific Avg” value amounted to 0.894. Besides, the PPB_Stab_Fail in series [1] turned out to be 0. For the same molecule, the “Mean Stability” value in series [1] (mean T5hr/T1hr ratio over all replicates and runs, plasma) is 0.893. In series [1], this molecule came in with a Fstable.Med of 0.272. The “Stability (T5hr/ T1hr), replicates A, B, C” value in series [1] (single replicate of one UC run) is 0.9156 and 0.9452 and 0.8196. In addition, the Hep_Stab_Fail in series [2] amounted to 1. In addition, the Fup.Med in series [3] is recorded as 0.0348. Also, in series [3], the Fup.point is on record as 0.0352. For the same molecule, the “Fraction Unbound (fu), replicates A, B, C” value in series [3] (single replicate of one UC run (aqueous fraction / Time 5 hr)) is 0.03475 and 0.04477. Further, the unbound share (fraction unbound) in series [4] (Fraction Unbound (fu), replicates A, B, C, single replicate of one UC run (aqueous fraction / Time 5 hr)) was found to be 0.0277; in series [4] (Mean Fu, mean fraction unbound over all replicates and runs, UC assay, human plasma), 0.036; in series [4] (setting [5]), 0.0357.

For the molecule `FC(F)(Br)C(F)(F)C(F)(F)C(F)(F)C(F)(F)C(F)(F)Br` [1,6-Dibromododecafluorohexane], in series [1], the “Time 1 hr” value is 8781.60 and 9238.06 and 11600.01; the “Time 1 hr, Run-specific Avg” value is on record as 9873.23; the “Time 5 hr” value was 4002.39 and 3732.26 and 4390.36; the “Time 5 hr, Run-specific Avg” value stood at 3867.32. Besides, in series [1], the “% remaining_PPB” value is 40%, the PPB_Stab_Fail is on record as 0 and the Fstable.Med is reported as 0.312. Further, the “Stability (T5hr/ T1hr), Run-specific Avg” value in series [1] (average of one UC run) was found to be 0.392. For the same molecule, the “Mean Stability” value in series [1] (setting [6]) is 0.415. For the same molecule, the Hep_Stab_Fail in series [2] came out at 1. In series [3], the “Aqueous Fraction” value was 16.97; the “Aqueous Fraction, Run-specific Avg” value turned out to be 16.97; the Fup.Med was 1.78E-09; the Fup.point was 0. Also, the fup in series [3] (human plasma, 10 μM, ultracentrifugation, 37 °C) came out at 0.004. The fraction unbound in series [4] (setting [7]) was 0.00422. Also, in series [4] (setting [8]), the free fraction (fraction unbound) was found to be 0.00424. In series [4] (setting [9]), this molecule had a free fraction (fraction unbound) of 0.00422. In series [4] (setting [5]), this molecule showed a fraction unbound of 0.004.

On to `OCCC(F)(F)C(F)(F)C(F)(F)C(F)(F)C(F)(F)C(F)(F)F` [6:2 Fluorotelomer alcohol], for which, in series [1], the “Time 1 hr” value was 10242.5 and 11181.9 and 10094.7; the “Time 1 hr, Run-specific Avg” value is listed as 10506.38; the “Time 5 hr” value was 8145.88 and 10628.7 and 9411.26; the “Time 5 hr, Run-specific Avg” value was 9387.28. In series [1], the “% remaining_PPB” value stood at 100%, the PPB_Stab_Fail was determined as 0 and the Fstable.Med is 0.205. Also, in series [1] (average of one UC run), the “Stability (T5hr/ T1hr), Run-specific Avg” value is listed as 0.893. In series [1] (setting [6]), the “Mean Stability” value worked out at 0.895. The same molecule registered a Hep_Stab_Fail in series [2] of 1. Besides, in series [3], the “Aqueous Fraction” value was 219.897 and 3328.34 and 176.612; the “Aqueous Fraction, Run-specific Avg” value is reported as 1241.62; the Fup.Med is given as 0.232; the Fup.point was 0.152. Moreover, the “Fraction Unbound (fu), Run-specific Avg” value in series [3] (average of one UC run) worked out at 0.0229.

Consider `OCC(F)(F)C(F)(F)C(F)(F)CO` [Hexafluoroamylene], for which, in series [1], the “Time 1 hr” value is 5856.63 and 5544.86 and 5920.14; the “Time 1 hr, Run-specific Avg” value is recorded as 5773.88; the “Time 5 hr” value is 3672.88 and 3626.61 and 3711.47; the “Time 5 hr, Run-specific Avg” value stood at 3649.75. For the same molecule, the Fstable.Med in series [1] was 0.988. Also, the “Stability (T5hr/ T1hr), Run-specific Avg” value in series [1] (average of one UC run) amounted to 0.632. Also, in series [1] (setting [6]), the “Mean Stability” value is 0.636. Moreover, in series [3], the “Aqueous Fraction” value is 160.563 and 273.771 and 229.145; the “Aqueous Fraction, Run-specific Avg” value stood at 221.16; the Fup.Med worked out at 0.627; the Fup.point was 0.675. This molecule also displayed a fraction unbound in series [4] (setting [7]) of 0.06. Also, the unbound share (fraction unbound) in series [4] (setting [8]) was determined as 0.0437. In addition, the fraction unbound in series [4] (setting [9]) was 0.06.

As for `C=CC(=O)OCC(F)(F)C(F)(F)C(F)(F)C(F)(F)C(F)(F)C(F)(F)C(F)(F)C(F)F` [1H,1H,9H-Perfluorononyl acrylate], in series [1], the “% remaining_PPB” value is 0%, the PPB_Stab_Fail is 1 and the Fstable.Med worked out at 0.000116. In addition, in series [2], the Hep_Stab_Fail is 1. Moreover, in series [3], the Fup.Med came to 2.02E-08 and the Fup.point is on record as 0.315.
